From article PMC7190597, “Characterisation of four hotdog-fold thioesterases for their implementation in a novel organic acid production system” (Applied Microbiology and Biotechnology, 2020)

Columns and labels:
[1] = biological target: T1, PA2801 (Pseudomonas aeruginosa, UniProt Q9I042); assay: DTNB assay on clarified lysate, empty-vector lysate control; type: biochemical; conditions: 0.2 mM substrate, 100 mM triethanolamine pH 8, 25 °C, 0.4 mM DTNB
T1 construct: full-length in pET29a, expressed in E. coli BL21(DE3), clarified lysate
T1 sequence (Q9I042 1-134): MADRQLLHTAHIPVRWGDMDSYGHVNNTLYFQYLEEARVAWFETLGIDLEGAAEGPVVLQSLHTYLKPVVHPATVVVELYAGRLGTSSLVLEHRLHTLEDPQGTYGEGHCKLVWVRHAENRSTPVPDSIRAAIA

[2] = biological target: T2, YbdB (Escherichia coli, UniProt P0A8Y8); assay: as above; type: biochemical; conditions: 0.2 mM substrate, 100 mM triethanolamine pH 8, 25 °C, 0.4 mM DTNB
T2 construct: gene entH; full-length in pET29a, expressed in E. coli BL21(DE3), clarified lysate
T2 sequence (P0A8Y8 1-137): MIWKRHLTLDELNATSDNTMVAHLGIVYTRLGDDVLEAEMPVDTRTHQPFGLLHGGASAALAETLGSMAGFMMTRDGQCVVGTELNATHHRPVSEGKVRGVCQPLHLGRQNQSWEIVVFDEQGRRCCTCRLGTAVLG

SMILES	DTNB assay on clarified lysate, empty-vector lysate control [1]	DTNB assay on clarified lysate, empty-vector lysate control [2]
CC(O)CC(=O)SCCNC(=O)CCNC(=O)[C@H](O)C(C)(C)COP(=O)(O)OP(=O)(O)OC[C@H]1O[C@@H](n2cnc3c(N)ncnc32)[C@H](O)[C@@H]1OP(=O)(O)O (mixture of isomers) [DLBH CoA, DL-β-hydroxybutyryl CoA]	PA2801 was found to have activity towards the aliphatic CoA esters: DLBH CoA	–
CC(C)(COP(=O)(O)OP(=O)(O)OC[C@H]1O[C@@H](n2cnc3c(N)ncnc32)[C@H](O)[C@@H]1OP(=O)(O)O)[C@@H](O)C(=O)NCCC(=O)NCCSC(=O)c1ccccc1 [Bz CoA, Benzoyl CoA]	–	YbdB was found to only have activity towards Bz CoA and nHD CoA
CC(C)(COP(=O)(O)OP(=O)(O)OC[C@H]1O[C@@H](n2cnc3c(N)ncnc32)[C@H](O)[C@@H]1OP(=O)(O)O)[C@@H](O)C(=O)NCCC(=O)NCCSC(=O)C1CCCCC1 [CHC CoA, cyclohexanecarboxylic acid coenzyme A]	despite activity being found with CHC CoA, no activity was found with CHC-NAC	–
CCCCCCCCCCCCCCCCC(=O)SCCNC(=O)CCNC(=O)[C@H](O)C(C)(C)COP(=O)(O)OP(=O)(O)OC[C@H]1O[C@@H](n2cnc3c(N)ncnc32)[C@H](O)[C@@H]1OP(=O)(O)O [nHD CoA, n-heptadecanoyl CoA]	–	YbdB was found to only have activity towards Bz CoA and nHD CoA
